Measurements from article PMC7669869, “AdipoR1/AdipoR2 dual agonist recovers nonalcoholic steatohepatitis and related fibrosis via endoplasmic reticulum-mitochondria axis” (Nature Communications, 2020).
Non-standard residues stand in square brackets, D forms with d. Residues, ends and D or L forms follow the SMILES beside them. Nva = CCC[C@H](N)C(=O)O

Tests used:
[1] = system: liver gene expression of CCl4 induced liver fibrosis mice; assay: CCl4 mice: liver RNAseq gene expression analysis; type: in vivo, mouse; settings: CCl4 + JT003 group
Protocol: Male mice liver fibrosis was induced by intraperitoneal injection of 20% CCl4 (Sigma, USA) diluted in corn oil (Aladdin, China) every 3 days for 6 weeks (n = 6; 5 ml kg^−1 body weight). Mice injected with equivalent volume of corn oil serves as control group (n = 6). Liver fibrosis mice treated with JT003 for 3 weeks were used to evaluated the pharmacological effects (n = 6; 500 μg kg^−1; daily intraperitoneal injection).
The positive area of all stained liver slices was quantified by ImageJ (https://imagej.nih.gov/ij/). All data in this study were shown as the mean ± SEM (Standard Error). Student’s two-tailed t test was used to compare the mean of two groups of samples. All statistical analyses were performed with GraphPad Prism software (https://www.graphpad.com/). Significance was considered when p < 0.05. In RNAseq gene expression analysis, false discovery rate <0.01, q value <0.001. The confidence level was 95%.

[2] = Serum stability assay (RP-HPLC); type: in vitro ADME; settings: for Fraction of peptide remaining, Supplementary Figure 5: mouse serum
Protocol: The stability of candidate peptides was investigated following procedure. […] Ice-cold acetonitrile was added to terminate the reaction. Vortex and stand for 1 min, deionized water with 1% TFA was added to the mixture to further terminate the reaction. Mixtures were then centrifuged (13,000g, 10 min) to obtain the supernatant. RP-HPLC-MS was applied to analysis the content of candidate peptides. The serum stability of candidate peptides was represented as the retention rate of each peptide.

AdipoR1 = target: T1, AdipoR1 (Homo sapiens, UniProt Q96A54); assay: Competition binding assay vs globular adiponectin (western blot), AdipoR1 overexpression cells; settings: JT003 4 h, then 50 μg ml−1 gAd155–161 4 h, in words
T1 construct: His; host or cells: HEK293
T1 sequence (Q96A54 1-375): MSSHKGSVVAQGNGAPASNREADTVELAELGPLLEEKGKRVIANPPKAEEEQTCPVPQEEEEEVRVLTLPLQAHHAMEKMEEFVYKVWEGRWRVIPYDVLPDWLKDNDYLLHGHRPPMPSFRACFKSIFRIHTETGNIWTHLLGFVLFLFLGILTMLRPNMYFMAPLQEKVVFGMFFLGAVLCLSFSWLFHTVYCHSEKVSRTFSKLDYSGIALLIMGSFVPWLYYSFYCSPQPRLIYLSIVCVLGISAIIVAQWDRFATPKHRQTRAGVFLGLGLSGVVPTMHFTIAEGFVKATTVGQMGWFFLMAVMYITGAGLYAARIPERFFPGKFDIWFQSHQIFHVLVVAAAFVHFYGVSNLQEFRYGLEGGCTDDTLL
Protocol: Different concentration of JT003 were incubated with AdipoR1 or AdipoR2 overexpression HEK293 cell line for 4 h. After that, 50 μg ml^−1 gAd155–161 were added for another 4 h incubation. The binding of gAd155–161 to the cells were measured via western blot assay.

## CCC[C@H](NC(=O)[C@@H]1CCCN1)C(=O)N[C@@H](CC(C)C)C(=O)N[C@@H](Cc1ccc(O)cc1)C(=O)N[C@@H](Cc1ccc(O)cc1)C(=O)N[C@@H](Cc1ccccc1)C(=O)N[C@@H](C)C(N)=O [JT003] (H-P[Nva]LYYFA-NH2)
[1]; Figure 6c
  Akr1c18 liver RNAseq expression: 0.1038
  Bco1 liver RNAseq expression: 0.5514
  Brca1 liver RNAseq expression: -0.5686
  C3ar1 liver RNAseq expression: -0.04576
  C5ar1 liver RNAseq expression: -0.1308
  Ccl9 liver RNAseq expression: 1.215
  Cxcl1 liver RNAseq expression: 1.2887
  Fbn1 liver RNAseq expression: -0.3979
  Fbn2 liver RNAseq expression: -1.301
  Nupr1 liver RNAseq expression: 0.5866
  Ptges liver RNAseq expression: -0.4949
  Rdh11 liver RNAseq expression: 0.8089
  Robo1 liver RNAseq expression: -0.03152
  Xcr1 liver RNAseq expression: -0.1135
[1]; Figure 7c
  Alg8 liver RNAseq expression: 0.5944
  Anxa5 liver RNAseq expression: 1.645
  Atp2b2 liver RNAseq expression: -0.4202
  Atp7b liver RNAseq expression: 0.2148
  Ces3b liver RNAseq expression: 2.066
  Creb3l2 liver RNAseq expression: 0.1072
  Dhrs9 liver RNAseq expression: -0.6021
  Elovl3 liver RNAseq expression: 0.433
  Fitm1 liver RNAseq expression: -0.3372
  Fmo2 liver RNAseq expression: 0.8831
  Fndc5 liver RNAseq expression: -0.7212
  Grik5 liver RNAseq expression: 0.5888
  Mia2 liver RNAseq expression: 0.7875
  Myo5a liver RNAseq expression: -0.7959
  Nat8f5 liver RNAseq expression: 0.6064
  Nsdhl liver RNAseq expression: 0.8949
  Nucb2 liver RNAseq expression: 0.4814
  Pdilt liver RNAseq expression: 0.5899
  Pkmyt1 liver RNAseq expression: 0.09691
  Prom1 liver RNAseq expression: -0.03152
  Serpina1e liver RNAseq expression: 3.324
  Slc37a2 liver RNAseq expression: -0.4559
  Soat1 liver RNAseq expression: -0.1079
  Sorl1 liver RNAseq expression: -0.8539
  Srd5a2 liver RNAseq expression: -0.09691
  Trim59 liver RNAseq expression: -0.4949
  Zdhhc2 liver RNAseq expression: -0.3468
[1]; Figure 5d
  Adamts5 liver RNAseq expression: -0.4318
  Adamtsl1 liver RNAseq expression: -0.9208
  Anxa2 liver RNAseq expression: 1.107
  Ckap4 liver RNAseq expression: -0.05061
  Col1a1 liver RNAseq expression: 0.8745
  Col1a2 liver RNAseq expression: 0.934
  Col3a1 liver RNAseq expression: 1.043
  Col6a3 liver RNAseq expression: 0.1367
  Lgals3 liver RNAseq expression: 0.941
  Lpl liver RNAseq expression: 1.015
  Ltbp2 liver RNAseq expression: -0.2757
  Mmp12 liver RNAseq expression: -0.1805
  Nid1 liver RNAseq expression: 0.5877
  Nid2 liver RNAseq expression: 0.03342
  Npnt liver RNAseq expression: -1.222
  Serpine2 liver RNAseq expression: 0.143
  Slpi liver RNAseq expression: 0.6998
  Tubb4b liver RNAseq expression: 1.687
[2]; time 0 (unit not given), replicate 1
  Fraction of peptide remaining, Supplementary Figure 5: 0.9904
[2]; time 0 (unit not given), replicate 2
  Fraction of peptide remaining, Supplementary Figure 5: 1.127
[2]; time 0 (unit not given), replicate 3
  Fraction of peptide remaining, Supplementary Figure 5: 0.9633
[2]; time 1 (unit not given), replicate 2
  Fraction of peptide remaining, Supplementary Figure 5: 0.7303
[2]; time 1 (unit not given), replicate 3
  Fraction of peptide remaining, Supplementary Figure 5: 0.7063
[2]; time 2 (unit not given), replicate 1
  Fraction of peptide remaining, Supplementary Figure 5: 0.4963
[2]; time 2 (unit not given), replicate 2
  Fraction of peptide remaining, Supplementary Figure 5: 0.5281
[2]; time 2 (unit not given), replicate 3
  Fraction of peptide remaining, Supplementary Figure 5: 0.4921
[2]; time 3 (unit not given), replicate 1
  Fraction of peptide remaining, Supplementary Figure 5: 0.4291
[2]; time 3 (unit not given), replicate 2
  Fraction of peptide remaining, Supplementary Figure 5: 0.4706
[2]; time 3 (unit not given), replicate 3
  Fraction of peptide remaining, Supplementary Figure 5: 0.4115
[2]; time 4 (unit not given), replicate 1
  Fraction of peptide remaining, Supplementary Figure 5: 0.3431
[2]; time 4 (unit not given), replicate 2
  Fraction of peptide remaining, Supplementary Figure 5: 0.3616
[2]; time 4 (unit not given), replicate 3
  Fraction of peptide remaining, Supplementary Figure 5: 0.3877
[2]; time 5 (unit not given), replicate 1
  Fraction of peptide remaining, Supplementary Figure 5: 0.4378
[2]; time 5 (unit not given), replicate 2
  Fraction of peptide remaining, Supplementary Figure 5: 0.3169
[2]; time 5 (unit not given), replicate 3
  Fraction of peptide remaining, Supplementary Figure 5: 0.3694
[2]; time 6 (unit not given), replicate 1
  Fraction of peptide remaining, Supplementary Figure 5: 0.3549
[2]; time 6 (unit not given), replicate 2
  Fraction of peptide remaining, Supplementary Figure 5: 0.2659
[2]; time 6 (unit not given), replicate 3
  Fraction of peptide remaining, Supplementary Figure 5: 0.2904
[2]; time 8 (unit not given), replicate 2
  Fraction of peptide remaining, Supplementary Figure 5: 0.272
[2]; time 8 (unit not given), replicate 3
  Fraction of peptide remaining, Supplementary Figure 5: 0.2915
[2]; time 12 (unit not given), replicate 2
  Fraction of peptide remaining, Supplementary Figure 5: 0.1256
[2]; time 12 (unit not given), replicate 3
  Fraction of peptide remaining, Supplementary Figure 5: 0.2003
[2]; mouse, 5 mM peptide, 37 °C, 12 h, triplicate, mean, read-out: retention rate after incubation in serum
  remaining at 12 h, 5 mM: ~22%
AdipoR1
  competitive binding to globular adiponectin, AdipoR1 overexpression cells: more JT003 cause less globular adiponectin binding
